From patent US12441719B2, “Inhibitors of SARM1” (Disarm Therapeutics, Inc., priority 2019, dated 2025)
Like-named read-outs stand apart in the source and are kept apart here.

Molecular target: T1, SARM1 (Homo sapiens, UniProt Q6SZW1)
T1 construct: AviTag […]; made in house; host or cells: NRK1-HEK293T cells, transiently transfected; the clarified sonicated lysate was used without purification
T1 sequence (Q6SZW1 with tags, fused parts or gaps): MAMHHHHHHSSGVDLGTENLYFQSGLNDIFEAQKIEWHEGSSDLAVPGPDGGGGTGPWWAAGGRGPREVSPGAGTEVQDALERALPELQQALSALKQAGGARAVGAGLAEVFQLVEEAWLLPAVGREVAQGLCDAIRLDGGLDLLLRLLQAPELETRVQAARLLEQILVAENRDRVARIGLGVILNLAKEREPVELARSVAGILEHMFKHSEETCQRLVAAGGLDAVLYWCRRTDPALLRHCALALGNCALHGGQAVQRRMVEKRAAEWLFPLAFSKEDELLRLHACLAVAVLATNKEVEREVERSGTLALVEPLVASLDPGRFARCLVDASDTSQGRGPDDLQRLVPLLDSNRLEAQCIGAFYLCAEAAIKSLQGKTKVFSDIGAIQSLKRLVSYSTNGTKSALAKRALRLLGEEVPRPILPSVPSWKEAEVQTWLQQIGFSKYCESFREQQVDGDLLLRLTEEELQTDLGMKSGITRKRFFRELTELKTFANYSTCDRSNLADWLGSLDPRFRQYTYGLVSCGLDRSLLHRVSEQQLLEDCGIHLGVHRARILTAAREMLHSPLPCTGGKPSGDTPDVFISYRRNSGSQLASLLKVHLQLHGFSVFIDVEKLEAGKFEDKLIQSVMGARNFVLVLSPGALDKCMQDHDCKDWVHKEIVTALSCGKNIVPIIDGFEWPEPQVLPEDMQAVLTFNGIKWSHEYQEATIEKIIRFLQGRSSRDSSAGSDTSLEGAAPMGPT
Test: ARM-SAM-TIR SARM1 IC50 assay (NADase activity, NAD+ cleavage)
Format: biochemical
Excerpt: This Example describes an assay of ARM-SAM-TTR NADase activity and use of this assay to measure the efficacy of compounds of Formula I or Formula II to block SARM1 mediated NAD+ cleavage. This assay is optimized in such a way as to characterize the efficacy of the compounds in Formula I or Formula II to inhibit SARM1 activity and to calculate an IC50 value for each compound. This assay makes use of full length SARI, which encompasses the ARM, SAM and TTR domains.
Preparation of ARM-SAM-TIR Lysate (STL)
NRK1-HEK293T cells were seeded onto 150 cm^2 plates at 20×10^6 cells per plate. The next day, the cells were transfected with 15 μg ARM-SAM-TIR expression plasmid, SEQ ID NO: 1.
The cultures were supplemented with 1 mM NR at time of transfection to minimize toxicity from ARM-SAM-TIR overexpression. Forty-eight hours after transfection, cells were harvested, pelleted by centrifugation at 1,000 rpm (Sorvall ST 16R centrifuge, Thermo Fisher), and washed once with cold PBS (0.01 M phosphate buffered saline NaCl 0.138 M; KCl 0.0027 M; pH 7.4). The cells were resuspended in PBS with protease inhibitors (cOmplete™ protease inhibitor cocktail, Roche product #11873580001) and cell lysates were prepared by sonication (Branson Sonifer 450, output=3, 20 episodes of stroke). The lysates were centrifuged (12,000×g for 10 min at 4° C.) to remove cell debris and the supernatants (containing ARM-SAM-TIR protein) were stored at −80° C. for later use in the in vitro ARM-SAM-TIR NADase assay (see below). Protein concentration was determined by the Bicinchoninic (BCA) method and used to normalize lysate concentrations.
ARM-SAM-TIR IC50 Assay of Formula I or Formula II Compounds.
The enzymatic assay was performed in a 384-well polypropylene plate in Dulbecco's PBS buffer in a final assay volume of 20 μL. ARM-SAM-TIR lysate with a final concentration of 5 μg/mL was pre-incubated with the respective compound at 1% DMSO final assay concentration over 2 h at room temperature. The reaction was initiated by addition of 5 μM final assay concentration of NAD+ as substrate. After a 2 hr room temperature incubation, the reaction was terminated with 40 μL of stop solution of 7.5% trichloroactetic acid in acetonitrile. The NAD+ and ADPR concentrations were analyzed by a RapidFire High Throughput Mass Spectrometry System (Agilent Technologies, Santa Clara, CA) using an API4000 triple quadrupole mass spectrometer (AB Sciex Framingham, MA).

[1] = ARM-SAM-TIR lysate 5 μg/mL from NRK1-HEK293T cells, 2 h pre-incubation with compound, 5 μM NAD+, 2 hr room temperature, NAD+ and ADPR by RapidFire mass spectrometry, read-out: SARM1 IC50

| SMILES | IC50 [1] | IC50 |
| --- | --- | --- |
| N#Cc1cc(N2CCOCC2)nc2ccc(Cl)cc12 [Example 76] | < 5 µM | – |
| N#Cc1cc(N2CCC[C@H](O)C2)nc2ccc(Cl)cc12 [Example 77] | < 5 µM | – |
| N#Cc1cc(N2CCC[C@H](C(N)=O)C2)nc2ccc(Cl)cc12 [Example 78] | < 5 µM | – |
| CNC(=O)[C@H]1CCCN(c2cc(C#N)c3cc(Cl)ccc3n2)C1 [Example 79] | < 5 µM | – |
| CN(C)C(=O)[C@H]1CCCN(c2cc(C#N)c3cc(Cl)ccc3n2)C1 [Example 80] | < 5 µM | – |
| C[C@@H]1CCC[C@H](C)N1c1cc(C#N)c2cc(Cl)ccc2n1 [Example 81] | < 5 µM | – |
| C[C@@H]1CCCCN1c1cc(C#N)c2cc(Cl)ccc2n1 [Example 82] | < 5 µM | – |
| C[C@H]1CCCCN1c1cc(C#N)c2cc(Cl)ccc2n1 [Example 83] | < 5 µM | – |
| N#Cc1cc(N2C[C@H]3C[C@@H]2CN3)nc2ccc(Cl)cc12 [Example 84] | – | 5 to 15 µM |
| N#Cc1cc(N2CCC[C@@H](N)C2)nc2ccc(Cl)cc12 [Example 85] | 5 to 15 µM | – |
| Cn1cc(-c2cc(C#N)c3cc(Cl)ccc3n2)cn1 [Example 86] | 5 to 15 µM | – |
| N#Cc1cc(-c2cccnc2)nc2ccc(Cl)cc12 [Example 87] | 15 to 30 µM | – |
| C#CCCC1(CCNC2CCN(c3cc(C#N)c4cc(Cl)ccc4n3)CC2)N=N1 [Example 88] | < 5 µM | – |
| N#Cc1cc(N2CCCCC2)nc2cc(F)c(Cl)cc12 [Example 89] | < 5 µM | – |
| N#Cc1c(Cl)c(N2CC[C@@H](O)C2)nc2ccc(Cl)cc12 [Example 90] | < 5 µM | – |
| CC(C)(C)OC(=O)N1C2CC1CN(c1cc(C#N)c3cc(Cl)ccc3n1)C2 [Example 91] | – | < 5 µM |
| N#Cc1cc(N2CCSCC2)nc2ccc(Cl)cc12 [Example 92] | < 5 µM | – |
| CC(C)(C)OC(=O)NC1CCN(c2cc(C#N)c3cc(C4=CCOC4)ccc3n2)CC1 [Example 93] | < 5 µM | – |
| CC(C)(C)OC(=O)NC1CCN(c2cc(C#N)c3cc(C4CCOC4)ccc3n2)CC1 (stereo not drawn) [Example 94] | < 5 µM | – |
| N#Cc1cc(N2CCCC[C@H]2CO)nc2ccc(Cl)cc12 [Example 95] | < 5 µM | – |
| C[C@@H]1CCC[C@H](C)N1c1cc(C#N)c2cc(Br)ccc2n1 [Example 96] | < 5 µM | – |

| SMILES | IC50 [1] | IC50 |
| --- | --- | --- |
| CC1(O)CCCN(c2cc(C#N)c3cc(Br)ccc3n2)C1 (stereo not drawn) [Example 97] | < 5 µM | – |
| N#Cc1cc(N2CCCCC2C2CC2)nc2ccc(Cl)cc12 (stereo not drawn) [Example 98] | < 5 µM | – |
| N#Cc1cc(N2CC[C@H](N)C(F)C2)nc2ccc(Br)cc12 (stereo partly drawn) [Example 99] | < 5 µM | – |
| N#Cc1cc(N2CCC[C@H](C(=O)N3CCCC3)C2)nc2ccc(Br)cc12 [Example 100] | < 5 µM | – |
| N#Cc1cc(N2CCC[C@H](C(=O)N3CCOCC3)C2)nc2ccc(Br)cc12 [Example 101] | < 5 µM | – |
| COCCNC(=O)[C@H]1CCCN(c2cc(C#N)c3cc(Br)ccc3n2)C1 [Example 102] | < 5 µM | – |
| N#Cc1cc(N2CCC[C@H](C(=O)NCC3CC3)C2)nc2ccc(Br)cc12 [Example 103] | < 5 µM | – |
| N#Cc1cc(N2CCC(C(=O)N3CCOCC3)CC2)nc2ccc(Br)cc12 [Example 104] | < 5 µM | – |
| N#Cc1cc(N2CCC(C(=O)NCC3CC3)CC2)nc2ccc(Br)cc12 [Example 105] | 5 to 15 µM | – |
| N#Cc1cc(N2CCC[C@H](NC(=O)C3CC3)C2)nc2ccc(Br)cc12 [Example 106] | < 5 µM | – |
| N#Cc1cc(N2CCC[C@H](NCc3ccccc3)C2)nc2ccc(Br)cc12 [Example 107] | < 5 µM | – |
| N#Cc1cc(N2CCC[C@H](NCC3CC3)C2)nc2ccc(Br)cc12 [Example 108] | < 5 µM | – |
| N#Cc1cc(N2CCC[C@H](N3CCCC3=O)C2)nc2ccc(Br)cc12 [Example 109] | < 5 µM | – |
| CS(=O)(=O)N[C@H]1CCCN(c2cc(C#N)c3cc(Br)ccc3n2)C1 [Example 110] | < 5 µM | – |
| C#CCCC1(CCNc2cc(C#N)c3cc(Cl)ccc3n2)N=N1 [Example 111] | < 5 µM | – |
| COCCN(C)C(=O)[C@H]1CCCN(c2cc(C#N)c3cc(Br)ccc3n2)C1 [Example 112] | < 5 µM | – |
| N#Cc1cc(N2CCC(NCc3ccccc3)CC2)nc2ccc(Br)cc12 [Example 113] | < 5 µM | – |
| CC(=O)NC1(C)CCN(c2cc(C#N)c3cc(Br)ccc3n2)CC1 [Example 114] | < 5 µM | – |
| CN(CC1CC1)C(=O)[C@H]1CCCN(c2cc(C#N)c3cc(Br)ccc3n2)C1 [Example 115] | < 5 µM | – |
| CN(Cc1ccccc1)C(=O)[C@H]1CCCN(c2cc(C#N)c3cc(Br)ccc3n2)C1 [Example 116] | < 5 µM | – |
| CS(=O)(=O)NC1CCN(c2cc(C#N)c3cc(Br)ccc3n2)CC1 [Example 117] | < 5 µM | – |

| SMILES | IC50 [1] | IC50 |
| --- | --- | --- |
| CC1(NS(C)(=O)=O)CCN(c2cc(C#N)c3cc(Br)ccc3n2)CC1 [Example 118] | < 5 µM | – |
| CC(=O)N[C@@]1(C)CCCN(c2cc(C#N)c3cc(Br)ccc3n2)C1 [Example 119] | < 5 µM | – |
| C[C@]1(NS(C)(=O)=O)CCCN(c2cc(C#N)c3cc(Br)ccc3n2)C1 [Example 120] | < 5 µM | – |
| CC(=O)N[C@]1(C)CCCN(c2cc(C#N)c3cc(Br)ccc3n2)C1 [Example 121] | < 5 µM | – |
| C[C@@]1(NS(C)(=O)=O)CCCN(c2cc(C#N)c3cc(Br)ccc3n2)C1 [Example 122] | < 5 µM | – |
| COCCN(C)C(=O)C1CCN(c2cc(C#N)c3cc(Br)ccc3n2)CC1 [Example 123] | < 5 µM | – |
| CN(CC1CC1)C(=O)C1CCN(c2cc(C#N)c3cc(Br)ccc3n2)CC1 [Example 124] | < 5 µM | – |
| CN(Cc1ccccc1)C(=O)C1CCN(c2cc(C#N)c3cc(Br)ccc3n2)CC1 [Example 125] | < 5 µM | – |
| N#Cc1cc(N2CCC[C@H](NC(=O)c3ccncn3)C2)nc2ccc(Br)cc12 [Example 126] | < 5 µM | – |
| N#Cc1cc(N2CCC[C@H](NC(=O)c3cn[nH]c3)C2)nc2ccc(Br)cc12 [Example 127] | < 5 µM | – |
| Cn1cc(C(=O)N[C@H]2CCCN(c3cc(C#N)c4cc(Br)ccc4n3)C2)cn1 [Example 128] | < 5 µM | – |
| Cc1n[nH]cc1C(=O)N[C@H]1CCCN(c2cc(C#N)c3cc(Br)ccc3n2)C1 [Example 129] | < 5 µM | – |
| Cn1cnc(C(=O)N[C@H]2CCCN(c3cc(C#N)c4cc(Br)ccc4n3)C2)c1 [Example 130] | < 5 µM | – |
| N#Cc1cc(N2CCOCC2C2CC2)nc2ccc(Cl)cc12 (stereo not drawn) [Example 131] | < 5 µM | – |
| N#Cc1cc(N2CCC(NS(N)(=O)=O)CC2)nc2ccc(Br)cc12 [Example 132] | < 5 µM | – |
| N#Cc1cc(N2CCC[C@H](NC(=O)c3cnccn3)C2)nc2ccc(Br)cc12 [Example 133] | < 5 µM | – |
| Cc1nccnc1C(=O)N[C@H]1CCCN(c2cc(C#N)c3cc(Br)ccc3n2)C1 [Example 134] | < 5 µM | – |
| Cc1cncnc1C(=O)N[C@H]1CCCN(c2cc(C#N)c3cc(Br)ccc3n2)C1 [Example 135] | < 5 µM | – |
| N#Cc1cc(N2CCC[C@H](NC(=O)c3c[nH]cn3)C2)nc2ccc(Br)cc12 [Example 136] | < 5 µM | – |
| N#Cc1cc(N2CCC[C@H](NC(=O)N3CCOCC3)C2)nc2ccc(Br)cc12 [Example 137] | < 5 µM | – |
| N#Cc1cc(N2CCC[C@H](NC(=O)N3CCS(=O)(=O)CC3)C2)nc2ccc(Br)cc12 [Example 138] | < 5 µM | – |
